{
  "source": "patent US11939609B2",
  "about": "“Rewiring aberrant cancer signaling to a therapeutic effector response with a synthetic two-component system” (The Board of Trustees of the Leland Stanford Junior …, priority 2017, dated 2024)",
  "key": {"MCF10A cells": {"test_system": "MCF10A cells", "assay": "Caspase-3 activity assay (fluorescent indicator imaging)", "format": "cell-based", "conditions": "non-cancerous breast epithelium line", "source_text": "(§1) To package lentivirus, HEK293T cells at ˜70% confluency were transfected with psPAX2, pMD2.G, and pLL3.7 plasmids using Lipofectamine 2000 (Life Technologies). Two days following transfection, viral supernatant was filtered with a 0.45 μm PES filter before using to infect target cells. rAAVdj-CAG-RASER1C-mCardinal-BID and rAAVdj-mCardinal were produced at the Stanford Gene Vector and Virus Core (Stanford University). Virus infected cells were neither sorted nor purified prior to obtaining the results shown, to remain close to the actual use scenario.\n(§2) NucView 488 Caspase-3 substrate (Biotium) and Hoechst 33342 (Invitrogen) were diluted into culture media to final concentrations of 1 μM each. After 1 h of incubation, cells were imaged with the Axiovert 200M with a 10×0.5-NA air objective."}, "MRC5 cells": {"test_system": "MRC5 cells", "assay": "Caspase-3 activity assay (fluorescent indicator imaging)", "format": "cell-based", "conditions": "non-cancerous lung fibroblast line", "source_text": "as §1, §2"}, "[1]": {"test_system": "BT-474, H1975, MCF-7, MCF-10A and MRC-5 cells", "conditions": "10 μM carboplatin + 10 μM paclitaxel; 10 μM lapatinib"}},
  "data": [
    {"smiles": "CC(=O)O[C@H]1C(=O)[C@@]2(C)[C@H]([C@H](OC(=O)c3ccccc3)[C@]3(O)C[C@H](OC(=O)[C@H](O)[C@@H](NC(=O)c4ccccc4)c4ccccc4)C(C)=C1C3(C)C)[C@]1(OC(C)=O)CO[C@@H]1C[C@@H]2O", "note": "[paclitaxel]", "values": [
      {"measurement": "apoptosis (caspase-3 fluorescent indicator)", "setting": "MCF10A cells", "result": "apoptosis is induced by paclitaxel"},
      {"measurement": "apoptosis (caspase-3 fluorescent indicator)", "setting": "MRC5 cells", "result": "apoptosis is induced by paclitaxel"}
    ]},
    {"smiles": "CS(=O)(=O)CCNCc1ccc(-c2ccc3ncnc(Nc4ccc(OCc5cccc(F)c5)c(Cl)c4)c3c2)o1", "note": "[Lapatinib, lapatinib]", "values": [
      {"measurement": "cytotoxicity across ErbB-hyperactive and ErbB-normal cell lines", "setting": "[1]", "result": "varied by cell line, but did not consistently correlate with ErbB status"}
    ]}
  ]
}
